Assay results from PubChem BioAssay AID1963850 (Molecular Pharmacology Branch, DTP, NCI, 2024).

Tested on: 192522-019-R-J2-PDC complex tumor spheroid viability
Assay: Anticancer human tumor 192522-019-R-J2-PDC patient-derived colon adenocarcinoma cell line growth inhibition [POLQ]
Conditions: for IC50: curve of first compound; for viability, T/C: stronger effect = lower value
In short: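 Growth inhibition in 3D: complex spheroids (tumor PDC, HUVEC, MSC) treated with POLQ inhibitor combinations; where Cmax unknown, highest tested concentration 10 microM, except SN-38 at 1 microM.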

[1] = second compound 0.0316 µM, first compound 0.0316 µM
[2] = second compound 0.0316 µM, first compound 0.1 µM
[3] = second compound 0.0316 µM, first compound 0.316 µM
[4] = second compound 0.0316 µM, first compound 1 µM
[5] = second compound 0.1 µM, first compound 0.0316 µM
[6] = second compound 0.1 µM, first compound 0.1 µM
[7] = second compound 0.1 µM, first compound 0.316 µM
[8] = second compound 0.1 µM, first compound 1 µM
[9] = second compound 0.316 µM, first compound 0.0316 µM
[10] = second compound 0.316 µM, first compound 0.1 µM
[11] = second compound 0.316 µM, first compound 0.316 µM
[12] = second compound 0.316 µM, first compound 1 µM
[13] = second compound 1 µM, first compound 0.0316 µM
[14] = second compound 1 µM, first compound 0.1 µM
[15] = second compound 1 µM, first compound 0.316 µM
[16] = second compound 1 µM, first compound 1 µM
[17] = second compound 3.16 µM, first compound 0.0316 µM
[18] = second compound 3.16 µM, first compound 0.1 µM
[19] = second compound 3.16 µM, first compound 0.316 µM
[20] = second compound 3.16 µM, first compound 1 µM
[21] = second compound 10 µM, first compound 0.0316 µM
[22] = second compound 10 µM, first compound 0.1 µM
[23] = second compound 10 µM, first compound 0.316 µM
[24] = second compound 10 µM, first compound 1 µM
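Also: spheroids exposed to drugs for seven days before reading.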
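For viability, T/C in this document: 100% = DMSO vehicle control viability in luminescence.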

CC(=O)O[C@H]1C(=O)[C@@]2(C)[C@H]([C@H](OC(=O)c3ccccc3)[C@]3(O)C[C@H](OC(=O)[C@H](O)[C@@H](NC(=O)c4ccccc4)c4ccccc4)C(C)=C1C3(C)C)[C@]1(OC(C)=O)CO[C@@H]1C[C@@H]2O + Nc1ccc(C#CCN(C(=O)Cc2ncc(C(F)(F)F)cc2C(F)(F)F)c2ccc(F)cc2)nn1
IC50 (second compound 0.0316 µM): > 3000 nM | IC50 (second compound 0.1 µM): > 3000 nM | IC50 (second compound 0.316 µM): > 3000 nM | IC50 (second compound 1 µM): > 3000 nM | IC50 (second compound 3.16 µM): > 3000 nM | IC50 (second compound 10 µM): > 3000 nM | viability, T/C (second compound 0.0316 µM, first compound 0.00949 µM): 95.6% | viability, T/C (second compound 0.0316 µM, first compound 0.03 µM): 65.1% | viability, T/C (second compound 0.0316 µM, first compound 0.0949 µM): 50.2% | viability, T/C (second compound 0.0316 µM, first compound 0.3 µM): 57% | viability, T/C (second compound 0.0316 µM, first compound 0.949 µM): 56.9% | viability, T/C (second compound 0.0316 µM, first compound 3 µM): 60.2% | viability, T/C (second compound 0.1 µM, first compound 0.00949 µM): 95.3% | viability, T/C (second compound 0.1 µM, first compound 0.03 µM): 63.3% | viability, T/C (second compound 0.1 µM, first compound 0.0949 µM): 55.4% | viability, T/C (second compound 0.1 µM, first compound 0.3 µM): 54.8% | viability, T/C (second compound 0.1 µM, first compound 0.949 µM): 61.2% | viability, T/C (second compound 0.1 µM, first compound 3 µM): 50.2% | viability, T/C (second compound 0.316 µM, first compound 0.00949 µM): 88.7% | viability, T/C (second compound 0.316 µM, first compound 0.03 µM): 69.6% | viability, T/C (second compound 0.316 µM, first compound 0.0949 µM): 54.2% | viability, T/C (second compound 0.316 µM, first compound 0.3 µM): 58.2% | viability, T/C (second compound 0.316 µM, first compound 0.949 µM): 57.9% | viability, T/C (second compound 0.316 µM, first compound 3 µM): 54.9% | viability, T/C (second compound 1 µM, first compound 0.00949 µM): 86.3% | viability, T/C (second compound 1 µM, first compound 0.03 µM): 62.6% | viability, T/C (second compound 1 µM, first compound 0.0949 µM): 53.7% | viability, T/C (second compound 1 µM, first compound 0.3 µM): 51.3% | viability, T/C (second compound 1 µM, first compound 0.949 µM): 57.4% | viability, T/C (second compound 1 µM, first compound 3 µM): 50.9% | viability, T/C (second compound 3.16 µM, first compound 0.00949 µM): 85.5% | viability, T/C (second compound 3.16 µM, first compound 0.03 µM): 65.7% | viability, T/C (second compound 3.16 µM, first compound 0.0949 µM): 55.8% | viability, T/C (second compound 3.16 µM, first compound 0.3 µM): 54.6% | viability, T/C (second compound 3.16 µM, first compound 0.949 µM): 59.2% | viability, T/C (second compound 3.16 µM, first compound 3 µM): 56% | viability, T/C (second compound 10 µM, first compound 0.00949 µM): 80% | viability, T/C (second compound 10 µM, first compound 0.03 µM): 66.3% | viability, T/C (second compound 10 µM, first compound 0.0949 µM): 60.2% | viability, T/C (second compound 10 µM, first compound 0.3 µM): 61.2% | viability, T/C (second compound 10 µM, first compound 0.949 µM): 60.9% | viability, T/C (second compound 10 µM, first compound 3 µM): 56.5%

CCc1cc2c(N3CCc4c(cc(Cn5ccnc5)cc4-c4cn(C)nc4C(F)(F)F)C3=O)cc(C)nc2c(OC)n1 + Cc1cccc(N(C)C(=O)C2C(O)CCN2c2nc(C)cc(C(F)(F)F)c2C#N)c1
IC50 (second compound 0.0316 µM): > 10000 nM | IC50 (second compound 0.1 µM): > 10000 nM | IC50 (second compound 0.316 µM): > 10000 nM | IC50 (second compound 1 µM): > 10000 nM | IC50 (second compound 3.16 µM): > 10000 nM | IC50 (second compound 10 µM): > 10000 nM | viability, T/C [1]: 116% | viability, T/C [2]: 91.1% | viability, T/C [3]: 83.4% | viability, T/C [4]: 87.9% | viability, T/C (second compound 0.0316 µM, first compound 3.16 µM): 72.2% | viability, T/C (second compound 0.0316 µM, first compound 10 µM): 68.1% | viability, T/C [5]: 99.3% | viability, T/C [6]: 99.4% | viability, T/C [7]: 88.1% | viability, T/C [8]: 78.5% | viability, T/C (second compound 0.1 µM, first compound 3.16 µM): 75.8% | viability, T/C (second compound 0.1 µM, first compound 10 µM): 69.6% | viability, T/C [9]: 112% | viability, T/C [10]: 99.1% | viability, T/C [11]: 85.4% | viability, T/C [12]: 79.4% | viability, T/C (second compound 0.316 µM, first compound 3.16 µM): 82.7% | viability, T/C (second compound 0.316 µM, first compound 10 µM): 72.7% | viability, T/C [13]: 102% | viability, T/C [14]: 94.9% | viability, T/C [15]: 84.2% | viability, T/C [16]: 84.6% | viability, T/C (second compound 1 µM, first compound 3.16 µM): 78.3% | viability, T/C (second compound 1 µM, first compound 10 µM): 72.6% | viability, T/C [17]: 107% | viability, T/C [18]: 98.4% | viability, T/C [19]: 101% | viability, T/C [20]: 79.8% | viability, T/C (second compound 3.16 µM, first compound 3.16 µM): 82.5% | viability, T/C (second compound 3.16 µM, first compound 10 µM): 73.9% | viability, T/C [21]: 110% | viability, T/C [22]: 103% | viability, T/C [23]: 93.9% | viability, T/C [24]: 90.1% | viability, T/C (second compound 10 µM, first compound 3.16 µM): 86.7% | viability, T/C (second compound 10 µM, first compound 10 µM): 79.3%

COc1cccc(OCCCN)c1-c1cc(Nc2cnc(C#N)cn2)n[nH]1 + Nc1ccc(C#CCN(C(=O)Cc2ncc(C(F)(F)F)cc2C(F)(F)F)c2ccc(F)cc2)nn1
IC50 (second compound 0.0316 µM): 26.9 nM | IC50 (second compound 0.1 µM): 25.7 nM | IC50 (second compound 0.316 µM): 27.1 nM | IC50 (second compound 1 µM): 28.1 nM | IC50 (second compound 3.16 µM): 29.1 nM | IC50 (second compound 10 µM): 26.9 nM | viability, T/C (second compound 0.0316 µM, first compound 0.00316 µM): 102% | viability, T/C (second compound 0.0316 µM, first compound 0.01 µM): 86% | viability, T/C [1]: 44.1% | viability, T/C [2]: 37.4% | viability, T/C [3]: 40.7% | viability, T/C [4]: 35.3% | viability, T/C (second compound 0.1 µM, first compound 0.00316 µM): 102% | viability, T/C (second compound 0.1 µM, first compound 0.01 µM): 78.4% | viability, T/C [5]: 43.5% | viability, T/C [6]: 39.4% | viability, T/C [7]: 35% | viability, T/C [8]: 36.3% | viability, T/C (second compound 0.316 µM, first compound 0.00316 µM): 102% | viability, T/C (second compound 0.316 µM, first compound 0.01 µM): 81.4% | viability, T/C [9]: 45.2% | viability, T/C [10]: 38.3% | viability, T/C [11]: 37.5% | viability, T/C [12]: 39.2% | viability, T/C (second compound 1 µM, first compound 0.00316 µM): 96.8% | viability, T/C (second compound 1 µM, first compound 0.01 µM): 87.5% | viability, T/C [13]: 45.7% | viability, T/C [14]: 40.6% | viability, T/C [15]: 40.1% | viability, T/C [16]: 40.5% | viability, T/C (second compound 3.16 µM, first compound 0.00316 µM): 101% | viability, T/C (second compound 3.16 µM, first compound 0.01 µM): 85.2% | viability, T/C [17]: 47.2% | viability, T/C [18]: 44.6% | viability, T/C [19]: 45.3% | viability, T/C [20]: 40.9% | viability, T/C (second compound 10 µM, first compound 0.00316 µM): 99.5% | viability, T/C (second compound 10 µM, first compound 0.01 µM): 66.7% | viability, T/C [21]: 46.7% | viability, T/C [22]: 43.1% | viability, T/C [23]: 52.2% | viability, T/C [24]: 46.8%
